Tests used:
HBV = test: Anti-HBV activity: intracellular HBV DNA by real-time PCR in HepG2.117 cell line; type: cell-based, Hepatitis B virus; conditions: Hepatitis B virus, 72 h; HepG2.117 cells, 3 days of treatment, intracellular HBV DNA by real-time PCR, mean value; read-out: HBV-AVE-HepG2.117 EC50 (μM, mean value)
In short: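 HepG2.117 cells, a Tet-off inducible HBV-producing line, induced to replicate HBV and then treated with serially diluted compound. After 3 days, intracellular HBV DNA quantified by real-time PCR with HBV-specific primers and probe.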

[1] = Cytotoxicity in HepG2.117 cells, ATPlite Luminescence Assay; type: cell-based, human; conditions: human, incubated for 3 days, mean value, read-out: TOX-HepG2.117 CC50 (μM, mean value)
Description: Cytotoxicity of the compounds was tested using HepG2 or HepG2.117 cells, incubated for 3 days in the presence of compounds. The viability of the cells was assessed using the PERKIN ELMER ATPlite Luminescence Assay System.”

| Compound | EC50 (HBV) | CC50 at 3 days [1] |
| --- | --- | --- |
| C[C@@H]1Cc2nn3c(c2CN1C(=O)c1ccc(C(F)(F)F)cc1)C(=O)N(Cc1ccccn1)CC3 [Example C115] | 0.265 µM | > 50 µM |
| C[C@@H]1Cc2nn3c(c2CN1C(=O)c1cc2c(Cl)cc(F)cc2[nH]1)C(=O)N(Cc1ccccn1)CC3 [Example C116] | 0.015 µM | 12.4 µM |
| C[C@@H]1Cc2nn3c(c2CN1C(=O)c1cc2c(Cl)ccc(F)c2[nH]1)C(=O)N(Cc1ccccn1)CC3 [Example C117] | 0.119 µM | 18.2 µM |
| C[C@@H]1Cc2nn3c(c2CN1C(=O)c1cc2c(C(F)F)c(F)ccc2[nH]1)C(=O)N(Cc1ccccn1)CC3 [Example C124] | 0.011 µM | 26.7 µM |
| C[C@@H]1Cc2nn3c(c2CN1C(=O)c1cc2c(C(F)(F)F)c(F)ccc2[nH]1)C(=O)N(Cc1ccccn1)CC3 [Example C125] | 0.037 µM | > 50 µM |
| CC(c1ccc(OC(F)(F)F)cc1)N1CCn2nc3c(c2C1=O)CN(C(=O)c1ccc(Cl)c(Cl)c1)[C@H](C)C3 (stereo partly shown) [Example C127] | 0.133 µM | 15.7 µM |
| CC(c1ccc(F)nc1)N1CCn2nc3c(c2C1=O)CN(C(=O)c1ccc(Cl)c(Cl)c1)[C@H](C)C3 (stereo partly shown) [Example C128] | 0.081 µM | > 50 µM |
| CC(c1ccccc1C#N)N1CCn2nc3c(c2C1=O)CN(C(=O)c1ccc(Cl)c(Cl)c1)[C@H](C)C3 (stereo partly shown) [Example C129] | 0.143 µM | > 50 µM |
| CC(c1ccc(Cl)nc1)N1CCn2nc3c(c2C1=O)CN(C(=O)c1ccc(Cl)c(Cl)c1)[C@H](C)C3 (stereo partly shown) [Example C130] | 0.082 µM | 33.7 µM |
| COc1cccc(C(C)N2CCn3nc4c(c3C2=O)CN(C(=O)c2ccc(Cl)c(Cl)c2)[C@H](C)C4)c1 (stereo partly shown) [Example C131] | 0.038 µM | 19.6 µM |
| C[C@@H]1Cc2nn3c(c2CN1C(=O)c1ccc(Cl)c(Cl)c1)C(=O)N(Cc1cncc(Cl)c1)CC3 [Example C132] | 0.061 µM | > 50 µM |
| C[C@@H]1Cc2nn3c(c2CN1C(=O)c1ccc(Cl)c(Cl)c1)C(=O)N(Cc1nccn1C(F)F)CC3 [Example C133] | 0.332 µM | > 50 µM |
| CCCn1c(C)nnc1CN1CCn2nc3c(c2C1=O)CN(C(=O)c1ccc(Cl)c(Cl)c1)[C@H](C)C3 [Example C134] | > 2.5 µM | > 50 µM |
| C[C@@H]1Cc2nn3c(c2CN1C(=O)c1ccc(Cl)c(Cl)c1)C(=O)N(Cc1ccn(CC(F)(F)F)n1)CC3 [Example C135] | 0.1 µM | > 50 µM |
| Cc1nnc(CN2CCn3nc4c(c3C2=O)CN(C(=O)c2ccc(Cl)c(Cl)c2)[C@H](C)C4)n1C [Example C136] | > 2.5 µM | > 50 µM |
| CC(C)n1ccc(CN2CCn3nc4c(c3C2=O)CN(C(=O)c2ccc(Cl)c(Cl)c2)[C@H](C)C4)n1 [Example C137] | 0.056 µM | > 50 µM |
| Cc1cnc(CN2CCn3nc4c(c3C2=O)CN(C(=O)c2ccc(Cl)c(Cl)c2)[C@H](C)C4)o1 [Example C138] | 0.061 µM | > 50 µM |
| Cc1cncc(CN2CCn3nc4c(c3C2=O)CN(C(=O)c2ccc(Cl)c(Cl)c2)[C@H](C)C4)c1 [Example C139] | 0.04 µM | > 50 µM |
| Cc1cc(CN2CCn3nc4c(c3C2=O)CN(C(=O)c2ccc(Cl)c(Cl)c2)[C@H](C)C4)no1 [Example C141] | 0.056 µM | > 50 µM |
| Cc1noc(C)c1CN1CCn2nc3c(c2C1=O)CN(C(=O)c1ccc(Cl)c(Cl)c1)[C@H](C)C3 [Example C142] | 0.268 µM | > 50 µM |
| C[C@@H]1Cc2nn3c(c2CN1C(=O)c1ccc(Cl)c(Cl)c1)C(=O)N(Cc1noc(C2CC2)n1)CC3 [Example C143] | 0.16 µM | > 50 µM |

| Compound | EC50 (HBV) | CC50 at 3 days [1] |
| --- | --- | --- |
| C[C@@H]1Cc2nn3c(c2CN1C(=O)c1ccc(Cl)c(Cl)c1)C(=O)N(Cc1ncnn1C)CC3 [Example C144] | > 2.5 µM | > 50 µM |
| Cc1cc(CN2CCn3nc4c(c3C2=O)CN(C(=O)c2ccc(Cl)c(Cl)c2)[C@H](C)C4)on1 [Example C145] | 0.106 µM | > 50 µM |
| Cc1nonc1CN1CCn2nc3c(c2C1=O)CN(C(=O)c1ccc(Cl)c(Cl)c1)[C@H](C)C3 [Example C146] | 1.79 µM | > 50 µM |
| C[C@@H]1Cc2nn3c(c2CN1C(=O)c1ccc(Cl)c(Cl)c1)C(=O)N(Cc1cnn(C)c1)CC3 [Example C147] | 0.054 µM | > 50 µM |
| Cc1noc(CN2CCn3nc4c(c3C2=O)CN(C(=O)c2ccc(Cl)c(Cl)c2)[C@H](C)C4)n1 [Example C148] | 0.385 µM | > 50 µM |
| Cc1nc(C)c(CN2CCn3nc4c(c3C2=O)CN(C(=O)c2ccc(Cl)c(Cl)c2)[C@H](C)C4)o1 [Example C149] | 0.059 µM | > 50 µM |
| Cc1ncsc1CN1CCn2nc3c(c2C1=O)CN(C(=O)c1ccc(Cl)c(Cl)c1)[C@H](C)C3 [Example C150] | 0.075 µM | > 50 µM |
| Cc1nc(CN2CCn3nc4c(c3C2=O)CN(C(=O)c2ccc(Cl)c(Cl)c2)[C@H](C)C4)no1 [Example C151] | 0.42 µM | > 50 µM |
| Cc1cccnc1CN1CCn2nc3c(c2C1=O)CN(C(=O)c1ccc(Cl)c(Cl)c1)[C@H](C)C3 [Example C152] | 0.145 µM | > 50 µM |
| C[C@@H]1Cc2nn3c(c2CN1C(=O)c1ccc(Cl)c(Cl)c1)C(=O)N(Cc1cncc(F)c1)CC3 [Example C153] | 0.082 µM | > 50 µM |
| Cc1cc(F)ccc1CN1CCn2nc3c(c2C1=O)CN(C(=O)c1ccc(Cl)c(Cl)c1)[C@H](C)C3 [Example C154] | 0.071 µM | 9.53 µM |
| C[C@@H]1Cc2nn3c(c2CN1C(=O)c1ccc(Cl)c(Cl)c1)C(=O)N(Cc1cn(C)nc1C(F)F)CC3 [Example C155] | 0.083 µM | > 50 µM |
| Cc1nc(CN2CCn3nc4c(c3C2=O)CN(C(=O)c2ccc(Cl)c(Cl)c2)[C@H](C)C4)co1 [Example C156] | 0.174 µM | > 50 µM |
| Cc1cc(CN2CCn3nc4c(c3C2=O)CN(C(=O)c2ccc(Cl)c(Cl)c2)[C@H](C)C4)nn1C [Example C157] | 0.02 µM | > 50 µM |
| Cc1nnc(CN2CCn3nc4c(c3C2=O)CN(C(=O)c2ccc(Cl)c(Cl)c2)[C@H](C)C4)n1C1CC1 [Example C158] | 2.38 µM | > 50 µM |
| C[C@@H]1Cc2nn3c(c2CN1C(=O)c1ccc(Cl)c(Cl)c1)C(=O)N(Cc1ncccc1C(F)(F)F)CC3 [Example C159] | 0.979 µM | 36 µM |
| Cc1ncc(CN2CCn3nc4c(c3C2=O)CN(C(=O)c2ccc(Cl)c(Cl)c2)[C@H](C)C4)s1 [Example C160] | 0.029 µM | > 50 µM |
| C[C@@H]1Cc2nn3c(c2CN1C(=O)c1ccc(Cl)c(Cl)c1)C(=O)N(Cc1cc(Cl)cc(C#N)c1)CC3 [Example C161] | 0.051 µM | > 50 µM |
| Cc1nc(CN2CCn3nc4c(c3C2=O)CN(C(=O)c2ccc(Cl)c(Cl)c2)[C@H](C)C4)cs1 [Example C162] | 0.082 µM | > 50 µM |
| COc1ccc(CN2CCn3nc4c(c3C2=O)CN(C(=O)c2ccc(Cl)c(Cl)c2)[C@H](C)C4)cc1C#N [Example C163] | 0.098 µM | > 50 µM |
